Measured values: PMC3139667, “A Screen against Leishmania Intracellular Amastigotes: Comparison to a Promastigote Screen and Identification of a Host Cell-Specific Hit” (PLoS Neglected Tropical Diseases, 2011)
Where a name gives a salt, the structure may show the parent alone. Read-outs that look alike come from different tables or passages of the source.

How the values were obtained:
[1] = tested on: L. donovani axenic amastigotes; experiment: Dose response study against axenic amastigotes (CellTiter-Glo); format: cell-based, Leishmania donovani; settings: 72 h at 37°C, CellTiter-Glo, read-out: GI50 Axenic amastigote
Experimental: L. donovani axenic amastigotes (5×10^5 cells/ml in axenic amastigote media) were dispensed in sterile 96-well flat white opaque assay plates (Greiner Bio-One) using a WellMate multichannel dispenser (Matrix). […] 1% DMSO and amphotericin B (2 µM, 1% DMSO final concentration) were added as negative and positive controls respectively. Axenic amastigotes were incubated with the compounds for 72 h at 37°C with 5% CO2. Parasite viability was then measured using CellTiter-Glo as described above.

[2] = tested on: L. donovani promastigotes; experiment: Promastigote high-throughput ATP-bioluminescence assay; format: cell-based, Leishmania donovani; settings: 72 h at 27°C, CellTiter-Glo, read-out: GI50 Promastigote
Experimental: L. donovani promastigotes from an exponentially growing culture were diluted to 10^6/ml in RPMI containing 10% FBS and 10% BHT. The diluted culture (99 µl/well) was dispensed in sterile 96-well flat white opaque assay plates (Greiner Bio-One) using a WellMate multichannel dispenser (Matrix). 1 µl of 1 mM test compound dissolved in DMSO was added to the plates for a final concentration of 10 µM compound and 1% DMSO. Amphotericin B was added as a positive control (final concentration 2 µM, 1% DMSO) and as a negative control, 1 µl DMSO was added (1% final concentration). Compounds and controls were added to the assay plate with the robotic dispenser Biomek FXp liquid handler (Beckman Coulter). Promastigotes were incubated with the compounds for 72 h at 27°C. The parasites were then lysed by adding 50 µl of CellTiter-Glo (Promega) and placed on an orbital shaker for 5 min at room temperature. After lysis, the resulting ATP-bioluminescence was measured using the Analyst HT plate reader (Molecular Devices). Percentage inhibition of parasite growth was calculated for each well as [1-(RLUx-RLU^+)/(RLU^--RLU^+)]*100 where RLUx, RLU^+ and RLU^- are respectively the Relative Light Units for each well, positive (amphotericin B) and negative (DMSO) controls. A screening window coefficient, denoted Z' factor, was used to evaluate the performance of the assay. The Z' factor, calculated as 1-(3σc++3σc−)/(µc+−µc−) where σc+, σc−, µc+ and µc− are respectively the standard deviation and mean values of positive and negative controls, is reflective of the assay signal dynamic range and the data variation associated with signal measurement. […] GI50 curve fitting was carried out using GraphPad Prism 4 Software (GraphPad Software Inc., San Diego, CA).

THP-1 = experiment: Host cell toxicity: THP-1 host nuclei counts in the image-based assay; settings: for GI50: read-out: GI50 THP-1; for Selectivity: ratio between parasite GI50 and THP-1 GI50
Experimental: (§1) Sterile, black, 96-well, clear bottom plates (Greiner Bio-One) were seeded with exponentially growing THP-1 (5×10^5cells/ml). THP-1 were treated with 0.1 µM phorbol myristate acetate (PMA, Sigma) at 37°C for 48 h to achieve differentiation into adherent, non-dividing macrophages. Maturation of THP-1 cells towards monocyte-macrophage like cells is essential to avoid parasitized cells being overgrown by replicating cells. After activation by PMA, cells were washed and incubated with complete RPMI medium containing stationary phase L. donovani promastigotes at a macrophage/promastigote ratio of 1/15. After 4 h incubation at 37°C, non-internalized promastigotes were removed by 2–3 successive washes with RPMI containing 5% FBS and 5% horse serum. Test compounds (10 µM), positive control (2 µM amphotericin B) or negative control (1% DMSO) were then added to the cultures using a Biomek FXp liquid handler (Beckman Coulter). Cultures were incubated at 37°C for 72 h. Cells were then washed with phosphate-buffered saline (PBS), fixed for 30 minutes with 4% formaldehyde, rinsed again with PBS, stained for 2 h with 4′,6′-diamidino-2-phenylindole (DAPI 300 nM) and finally washed with PBS. […] Images were acquired with an INCell Analyzer 1000 automated epi-fluorescent microscope (G.E. Healthcare). The excitation and emission filters used to detect DAPI were 350/50 nm and 460/40 nm respectively. Eight image fields were acquired per well with a 20X objective. The proprietary INCell Developer Toolbox 1.7 software was used for image analysis. Segmentation parameters were set to identify host nuclei with a minimum area of 250 µm^2 and parasite kinetoplast with an average area of 1 µm^2. The intensity of parasite nucleus was too low to be detected with a 20X objective. A border, representing the boundary of the cell, was drawn around the nucleus (total area between 700 and 2000 µm^2). Only parasites found within this area were included in the calculation to eliminate extracellular parasites. False positive parasite detection in the nucleus was also excluded from the calculation. Host cell nuclei and parasite kinetoplasts were counted and the ratio of parasites DNA to host nuclei was selected as the measurement output. Percentage inhibition of parasite growth was calculated as [1-(P/hcx-P/hc^+)/(P/hc^−-P/hc^+)]*100 where P/hcx, P/hc^+ and P/hc^− are parasite per host cell ratio for every well, positive control (amphotericin B) and negative control (DMSO) respectively. Calculation of Z' factor and GI50 curve fitting were carried out as described above.

[3] = tested on: L. donovani intracellular amastigotes; experiment: Intracellular amastigote high-throughput image-based assay in infected THP-1 macrophages; format: cell-based, Leishmania donovani; settings: for GI50: L. donovani in THP-1, 72 h, parasites per host cell, read-out: GI50 Intracellular amastigote
Experimental: as §1

[4] = ratio between promastigote GI50 and intracellular amastigote GI50, >2 more active against intracellular amastigote, <0.4 more active against promastigotes
[5] = PMA-differentiated infected THP-1, 72 h, host nuclei count
[6] = Leishmania donovani, THP-1, 72 h

Compound | GI50 ([1]; Leishmania donovani) | GI50 ([2]; Leishmania donovani) | GI50 (THP-1; Homo sapiens, THP-1, 72 h) | Selectivity (THP-1) | GI50 [1] | GI50 [2] | Specificity [3, 4] | further results
O=C(Nc1ccc(Cl)c(Cl)c1)c1cc(Cl)cc(Cl)c1O [3,3′,4′,5-tetrachlorosalicylanilide] | 1.38 µM | 1.45 µM | 0.32 µM | 0.22 | – | – | – | –
CCC(c1ccc(OCCN(CC)CC)cc1)C(CC)c1ccc(OCCN(CC)CC)cc1 (centres unmarked) [4,4′-Diethylaminoethoxyhexestrol] | – | – | – | 4.36 | 10.9 µM | 5 µM | 3.57 | GI50 [3]: 1.4 µM; GI50 (THP-1; [5]): 6.11 µM
CC[C@@]1(O)C[C@H](O[C@H]2C[C@H](N(C)C)[C@H](O[C@H]3C[C@H](O)[C@H](O[C@H]4CCC(=O)[C@H](C)O4)[C@H](C)O3)[C@H](C)O2)c2c(cc3c(c2O)C(=O)c2c(O)cccc2C3=O)[C@H]1C(=O)OC [Aclacynomycine a1] | – | – | – | 5 | > 16.5 µM | 9.15 µM | 1.57 | GI50 [3]: 5.81 µM; GI50 (THP-1; [5]): 29.1 µM
Nc1c2ccccc2nc2ccccc12 [Aminacrine] | > 16.5 µM | 8.96 µM | 13 µM | 6.82 | – | – | 4.71 | GI50 [3, 6]: 1.9 µM
CCOC(=O)C1=C(COCCN)NC(C)=C(C(=O)OC)C1c1ccccc1Cl (centres unmarked) [Amlodipine] | 27 µM | 3.11 µM | > 16.5 µM | – | – | – | 0.31 | GI50 [3, 6]: 9.78 µM
C[C@@H]1[C@H](O)[C@@H](C)/C=C/C=C/C=C/C=C/C=C/C=C/C=C/[C@H](O[C@@H]2O[C@H](C)[C@@H](O)[C@H](N)[C@@H]2O)C[C@@H]2O[C@](O)(C[C@@H](O)C[C@@H](O)[C@H](O)CC[C@@H](O)C[C@@H](O)CC(=O)O[C@H]1C)C[C@H](O)[C@H]2C(=O)O [Amphotericin B] | 5.42 µM | 1.61 µM | > 50 µM | 44.52 | – | – | 1.43 | Effect on growth of intracellular L. donovani ([3]; 2 µM, 72 h): significantly inhibited growth; Primary screen against intracellular amastigotes, hit selection ([3]; 10 µM, duplicates, hit = 60% parasite growth inhibition and not more than 20% reduction in THP-1 numbers): active; GI50 [3]: 1.12 µM
CCCCCC[C@H]1C(=O)O[C@H](C)[C@H](NC(=O)c2cccc(NC=O)c2O)C(=O)O[C@@H](C)[C@@H]1OC(=O)CC(C)C [Antimycin A] | 0.01 µM | 0.1 µM | > 50 µM | 500 | – | – | 0.05 | GI50 [3, 6]: 2.15 µM
CC(=O)OC[C@H]1O[C@@H]([S-])[C@H](OC(C)=O)[C@@H](OC(C)=O)[C@@H]1OC(C)=O.CCP(CC)CC.[Au+] [Auranofin] | – | – | – | 1.88 | > 50 µM | 11.1 µM | 0.51 | GI50 [3]: 21.8 µM; GI50 (THP-1; [5]): 20.9 µM
CC(C)(C)c1ccc(S(=O)(=O)/C=C/C#N)cc1 [BAY 11–7085] | – | – | – | 32.46 | 0.42 µM | 1.54 µM | – | Specificity [3]: 0.06; GI50 (THP-1; [5]): > 50 µM
Cc1c(-c2ccc(O)cc2)n(Cc2ccc(OCCN3CCCCCC3)cc2)c2ccc(O)cc12 [Bazedoxifene] | > 16.5 µM | 6.52 µM | – | – | – | – | – | –
CC(C)(C)CC(C)(C)c1ccc(OCCOCC[N+](C)(C)Cc2ccccc2)cc1.[Cl-] [Benzetonium chloride] | – | – | – | – | 10.7 µM | 11.3 µM | 1.13 | GI50 [3]: 10 µM
CCN(CC)c1ccc(C(=C2C=CC(=[N+](CC)CC)C=C2)c2ccccc2)cc1 [Brilliant green] | 0.03 µM | 0.1 µM | 1.64 µM | 15.88 | – | – | 0.02 | GI50 [3, 6]: 6 µM
COc1ccccc1OCCNCC(O)COc1cccc2[nH]c3ccccc3c12 (centres unmarked) [Carvedilol] | > 16.5 µM | 12.4 µM | 37.5 µM | 6.07 | – | – | 2.01 | GI50 [3, 6]: 6.16 µM
COCc1c(C(C)C)nc(C(C)C)c(/C=C/[C@@H](O)C[C@@H](O)CC(=O)O)c1-c1ccc(F)cc1 [Cerivastatin] | 0.02 µM | 10.8 µM | 7.15 µM | 0.66 | – | – | 0.22 | GI50 [3, 6]: > 50 µM
CCCCCCCCCCCCCCCC[n+]1ccccc1 [Cetylpyridinium chloride] | – | – | – | – | – | – | – | Specificity [3]: 8.05
C[C@@H]1CC[C@@]2(OC1)O[C@H]1[C@@H](O)[C@H]3[C@@H]4CC[C@H]5C[C@@H](O[C@@H]6O[C@H](CO)[C@H](O[C@@H]7O[C@H](CO)[C@@H](O)[C@H](O[C@@H]8OC[C@@H](O)[C@H](O)[C@H]8O)[C@H]7O[C@@H]7O[C@H](CO)[C@H](O)[C@H](O[C@@H]8O[C@H](CO)[C@@H](O)[C@H](O)[C@H]8O)[C@H]7O)[C@H](O)[C@H]6O)[C@H](O)C[C@]5(C)[C@H]4CC[C@]3(C)[C@H]1[C@@H]2C [Digitonin] | 13.8 µM | 4.38 µM | 13.5 µM | 3.075 | – | – | – | –
CC(=O)[C@]1(O)Cc2c(O)c3c(c(O)c2[C@@H](O[C@H]2C[C@H](N)[C@H](O)[C@H](C)O2)C1)C(=O)c1ccccc1C3=O [Idarubicin] | 1.78 µM | 4.65 µM | 1.89 µM | 0.40 | – | – | – | –
CN(C)C(=O)C(CCN1CCC(O)(c2ccc(Cl)cc2)CC1)(c1ccccc1)c1ccccc1 [Loperamide Hydrochloride] | > 50 µM | 17.3 µM | – | – | – | – | – | –
Clc1ccc(CO/N=C(\Cn2ccnc2)c2ccc(Cl)cc2Cl)c(Cl)c1 [Oxiconazole] | – | – | – | – | – | – | 0.40 | –
COc1c(Cl)cc2c(c1OC)N(C)[C@@H]1N3C(=O)[C@@]4(C)SS[C@@]3(C(=O)N4C)[C@H](O)[C@]21O [Sporidesmin A] | – | – | – | 0.02 | 1.66 µM | 1.18 µM | – | GI50 (THP-1; [5]): 0.02 µM
CC(C)(C)c1ccc(C(O)CCCN2CCC(C(O)(c3ccccc3)c3ccccc3)CC2)cc1 (centres unmarked) [Terfenadine] | 0.61 µM | 11.9 µM | – | – | – | – | – | –
C[CH2][Hg][S]c1ccccc1C(=O)[O-].[Na+] [Thimerosal] | – | – | – | 26.18 | 1.5 µM | 0.49 µM | – | GI50 (THP-1; [5]): 12.8 µM
CCCCN(CCCC)C(=S)[S-].CCCCN(CCCC)C(=S)[S-].[Zn+2] [Zinc Dibutyldithiocarbamate] | – | – | – | 5.89 | – | – | – | Specificity [3]: 0.17
Gramicidin | – | – | – | 12.19 | 5.76 µM | 0.68 µM | – | GI50 (THP-1; [5]): 8.38 µM
